{"source": "patent US20250352528A1", "about": "“TOPICAL ROSIGLITAZONE FOR RADIATION-INDUCED SKIN INJURY” (The Brigham and Women's Hospital, Inc., priority 2022, published 2025)", "key": {"[1]": {"tested_on": "adipose-derived mesenchymal stem cells (AdMSCs) treated with TGFβ1", "test": "Adipogenic and fibrogenic gene expression (RT-PCR) in AdMSCs treated with TGFβ1 with or without rosiglitazone", "assay_type": "cell-based, mouse", "conditions": "TGFβ1 10 ng/ml + rosiglitazone 10 μM, 7 days, v. TGFβ1 without rosiglitazone", "protocol": "Previous studies have established that PPARg agonists reverse the effects of pro-fibrotic transforming growth factor-beta (TGFβ) ligands.\nMice adipose-derived stem cells (ADSCs) were isolated from adult male C57BL/6J mice inguinal fat pad. ADSCs were cultured in DMEM/F12 (Sigma, Logan, UT) supplemented with 10% Fetal Bovine Serum (FBS) (Sigma) and antibiotics (penicillin and streptomycin, Hyclone). ADSCs were maintained at 37° C. under a 5% CO2 atmosphere. For rosiglitazone treatment experiment, ADSCs were treated with/without recombinant TGFβ1 (10 ng/ml) (Invitrogen, USA) and rosiglitazone (10 μM) for 7 days after seeded ([…]) in 6-well plates.\nTotal RNA was isolated from ADSCs using TRI reagent and RNA extraction kit (Zymo Research, Irvine, CA). First-strand cDNA was synthesized by using iScript RT-PCR mix (BioRad, Hercules, CA) according to user manual. SYBR green qPCR master Mix (BioRad, Hercules, CA), primers, and cDNA were mixed in a final reaction volume of 10 μl. Real time polymerase chain reaction (RT-PCR) were performed by using Applied Biosystems 7300 Fast Real-Time PCR System (AB) according to the manufacturer's instructions."}, "[2]": {"conditions": "systemic rosiglitazone [Ref. 20,21]; cited from earlier work"}, "PDGFRα+ cells": {"tested_on": "PDGFRα+ cells", "test": "Flow cytometry of hindlimb skin after lymphadenectomy", "assay_type": "in vivo, mouse", "protocol": "(§1) A total of 32 mice underwent lymphedema surgery were randomly assigned into two groups, lymphedema group and rosiglitazone group (n=16). Rosiglitazone (Combi-Blocks, San Diego, USA) was dissolved in DMSO at the concentration of 25 mg/ml, and was diluted in corn oil to the final concentration of 2.5 mg/ml before injection. Mice in rosiglitazone group were intraperitoneally injected with rosiglitazone (10 mg/kg) twice a week from the day of surgery (day 0, 3, 7, 10, 14, 17). Mice in lymphedema group were injected with corn oil only at same time point. 8 mice in lymphedema group and rosiglitazone group were sacrificed on day 7 (n=8 per group), the rest of them were sacrificed on day 21 (n=8 per group). Another 18 mice were randomly divided into three groups, normal control group, lymphedema group, and rosiglitazone group, skin cells from these mice were isolated and used for flow cytometry analysis at day 7 (n=3 per group per staining).\nFlow cytometry was performed using single-cell suspensions obtained from skin and subcutaneous tissue. 1×1 cm tissue harvested from the mice hindlimb were minced with scissors and digested by using collagenase type I (1 mg/ml) and dispase (2 mg/ml) at 37° C. on a shaker. All suspensions were filtered through 100 μm filters.\nCells were then stained with following conjugated antibodies: APC-PDGFRα (1:100), APC-PDGFRβ (1:100), HCS LipidTOX red neutral lipid stains (1:200), APC-CD45 (1:150), PE-CD3 (1:150), PerCP-Cy5-CD4 (1:150). Flow cytometry was performed on the Beckman Cytoflex FCM using CytExpert software (Beckman Coulter, CA, USA) and data were analyzed with FlowJo software (Tree Star; Ashland, OR)."}, "[3]": {"tested_on": "hindlimb secondary lymphedema after lymphadenectomy", "test": "Mouse hind limb lymphedema model (lymphadenectomy): limb measurements and histology", "assay_type": "in vivo", "conditions": "rosiglitazone 10 mg/kg i.p. twice a week; for Dermal thickness / Overall skin thickness / Subdermal layer (fibroadipose tissue) thickness: H&E", "description": "Evans blue (Sigma) (4% in PBS) was filtered and injected into mouse foot pad to stain lymph nodes in hind limb. Mouse hind limb secondary lymphedema was induced by surgical excision of the ipsilateral superficial inguinal, popliteal, deep inguinal lymph nodes, and the femoral lymphatic vessel. During surgical procedures, electrocauterization were used to prevent bleeding.\nas §1\nSacrifice was performed via CO2 asphyxiation. Skin and muscle of hind limb were harvested, fixed in 10% formalin for 48 h followed by 70% ethanol for histological assessment. Formalin-fixed tissues were then dehydrated, embedded in paraffin, and sectioned with 5-micron-thickness.\nSections were stained either with Hematoxylin and Eosin (H&E) or Picrosirius Red according to standard protocol, and used to assess the overall skin thickness, dermal thickness, fibroadipose tissue thickness, and fibrosis, respectively. Quantitative histological analysis was performed using samples from day 7 and 21.\nImages were captured by using Olympus BX53 (UCMAD3, T7, Japan) and all-in-one Keyence (Itasca, IL, USA) microscopes and assessed by ImageJ (version 1.52a; […]) by two independent researchers under blinded conditions. Fibrosis was assessed with the image thresholding plugin in ImageJ software, normalization is based on the length of the section (v1.52a; […])."}, "[4]": {"conditions": "1 cm×1 cm area of skin, day 7 after lymphadenectomy"}, "[5]": {"conditions": "1 week after lymphadenectomy, normalized to uninjured hindlimb"}}, "data": [{"compound": "CN(CCOc1ccc(CC2SC(=O)NC2=O)cc1)c1ccccn1", "note": "(stereo not shown) [rosiglitazone]", "values": [{"measurement": "Adipoq expression level", "setting": "[1]", "result": 2.40}, {"measurement": "Col1a1 expression level", "setting": "[1]", "result": 0.76}, {"measurement": "Ctgf expression level", "setting": "[1]", "result": 0.80}, {"measurement": "Fn1 expression level", "setting": "[1]", "result": 0.82}, {"measurement": "Lpl expression level", "setting": "[1]", "result": 2.53}, {"measurement": "Pdgfra expression level", "setting": "[1]", "result": 0.72}, {"measurement": "Adverse effects", "setting": "[2]", "result": "fluid retention, heart failure, and fractures"}, {"measurement": "Absolute number of PDGFRα+LipidTOX+ cells", "setting": "PDGFRα+ cells; [4]", "result": 862}, {"measurement": "FSC^high PDGFRα+LipidTOX+ cells (cell size)", "setting": "PDGFRα+ cells; [4]", "result": 73}, {"measurement": "PDGFRα+ cells, absolute count", "setting": "PDGFRα+ cells; [4]", "result": "0.9×10^3"}, {"measurement": "PDGFRα+LipidTOX+ cells as a proportion of total PDGFRα cells", "setting": "PDGFRα+ cells; day 7 after lymphadenectomy, results section", "result": 86, "unit": "%"}, {"measurement": "Share of PDGFRα+ cells that were LipidTOX+", "setting": "PDGFRα+ cells; rosiglitazone-treated samples", "result": "over 90%"}, {"measurement": "Normalized edema size", "setting": "[3]; [5]", "result": 1.08}, {"measurement": "Normalized hindlimb circumference", "setting": "[3]; [5]", "result": 1.31}, {"measurement": "Dermal thickness", "setting": "[3]; 1 week", "result": 438.54}, {"measurement": "Overall skin thickness", "setting": "[3]; 1 week", "result": 924.66, "unit": "μm"}, {"measurement": "Subdermal layer (fibroadipose tissue) thickness", "setting": "[3]; 1 week", "result": 486.12, "unit": "μm"}, {"measurement": "Normalized hindlimb fibrosis (picrosirius red)", "setting": "[3]; 1 week", "result": 0.130}, {"measurement": "Dermal thickness", "setting": "[3]; 3 week", "result": 403.76}, {"measurement": "Overall skin thickness", "setting": "[3]; 3 week", "result": 646.12, "unit": "μm"}, {"measurement": "Subdermal layer (fibroadipose tissue) thickness", "setting": "[3]; 3 week", "result": 242.36, "unit": "μm"}, {"measurement": "Normalized hindlimb fibrosis (picrosirius red)", "setting": "[3]; 3 week", "result": 0.128}]}]}
